For data set [1], the system named is PANC-1 Xenograft. The data set can be described thus: PANC-1 xenograft mouse model of pancreatic ductal carcinoma. As to conditions: 120 mg/Kg i.p. twice a week for 6 weeks. In kind it is in vivo. The method, then: (§1) Peptides in their stereoisomer forms were tested in vivo using two mouse models of human pancreatic ductal adenocarcinoma: the PANC-1 Xenograft mouse model and the MiaPaca-2 Xenograft mouse model. Athymic male nude mice (nu/nu) were injected s.c. with cultured […] human pancreatic cancer cells from each different model in the right mice flanks After tumors reached ˜150 mm^3 mice were randomly separated into three groups (n=3/group). Group 1 was treated with vehicle; Group 2 was treated with 120 mg/Kg Gemcitabine (standard established dose); and Group 3 was treated with 25 mg/kg of a combination of four stereoisomer peptides. Mice were dosed by i.p. injection twice a week for 6 weeks.

For data set [2], the system named is MiaPaca-2 Xenograft. Put plainly: MIAPaCa-2 xenograft mouse model of pancreatic ductal carcinoma. The data set is classed as in vivo. The note with it: 120 mg/Kg i.p. twice a week for 6 weeks. The method, then:
as §1
In this model the tumors of treated mice grew slowly compared to untreated mice (see FIG. 14A). […] These two human mouse models confirm the therapeutic potency, efficacy, and value of the stereoisomer peptides to treat pancreatic cancer, one of the deadliest cancers for which there are no therapies.

For one compound, condition of mice, body weight and livers after euthanasia results are on record in patent publication US9790286B2, “Stereoisomer peptides, their polymer conjugates, their encapsulation into nanoparticles, and uses thereof for the treatment of diseases caused by abnormal angiogenesis” (priority 2013, dated 2017).

Regarding `Nc1ccn([C@@H]2O[C@H](CO)[C@@H](O)C2(F)F)c(=O)n1` [Gemcitabine], the condition of mice result in data set [1] was “moribund”. Further, in data set [2], the body weight result was “lost body weight”, the condition of mice result is reported as “moribund” and the livers after euthanasia result is “dark with signs of necrosis”.
